Source: US4337256A, “1-Phenyl isoquinoline-5-acetic acid compounds and analgesic compositions thereof” (priority 1978, dated 1982)

Experiments:
[1] = test system: left hind paw edema (carrageenin); test: Anti-inflammatory activity: carrageenin-induced left hind paw edema; type: in vivo, male Wistar rats; conditions: Rattus norvegicus, po, p.o., 1 h before carrageenin, measured 3 h later, read-out: Percent inhibition (edema)
Procedure: Male Wistar rats weighing 120 to 150 g which had been fasted for 24 hours were used in groups each consisting of 5 rats. In each group, the volumes of the left hind paw were measured by a volume differential meter (made by Ugo Basile Company), and each of the test compounds was suspended in an aqueous solution of 0.5% of carboxymethyl cellulose and 2.0% of Tween 80, and administered orally through a tube. After one hour from the administration, 0.1 ml of a 1% suspension of carrageenin in distilled water was subcutaneously injected into the plantar tissues of the left hind paw. Three hours later, the volumes of the left hind paw were again measured. The increase in volume of the left hind paw of each rat in each group (the volume of edema) was measured.

[2] = test system: writhings (acetic acid) in the mice; test: Analgesic activity: acetic acid writhing test; type: in vivo, male mice (ddY); conditions: Mus musculus, po; p.o. 1 h before 0.6% acetic acid i.p.; parentheses show 95% confidence limits; read-out: ED50 (analgesic, writhing inhibition)
Procedure: Male mice (ddY) weighing 18 to 22 g were used in groups each consisting of 10 mice. Each of the compounds was suspended in an aqueous solution of 0.5% of carboxymethyl cellulose and 2.0% of Tween 80, and administered orally through a tube. After one hour from the administration, 0.6% acetic acid was administered intraperitoneally in an amount of 0.1 ml per 10 g of body weight, and the number of writhings which occurred in the mice during a period of 20 minutes after the administration was measured. The percent inhibition was calculated from the following equation, and the ED50 values of the test compounds were calculated from the percent inhibition in accordance with the method of Litchfield-Wilcoxon.

[3] = test system: stomach mucosal membrane; test: Ulcerogenic activity: gastric ulceration; type: in vivo, male Wistar rats; conditions: p.o., 4 h
Procedure: Each of the test compounds was orally administered by the same way as in the test on anti-inflammatory activity to male Wistar rats weighing 120 to 150 g which had been fasted for 24 hours. Four hours later, they were killed with ether.

[4] = Toxicity test (LD50); conditions: mouse, in vivo; oral, observed for 1 week; parentheses show 95% confidence limits
Procedure: Each of the test compounds was suspended in a physiological saline solution having dissolved therein 2% of Tween 80, and orally administered through a tube to groups of ddY mice (male: 19 to 22 g) each group consisting of 6 mice. The mice were then observed for 1 week. The LD50 values were calculated from the lethality in accordance with the method of Litchfield-Wilcoxon.

| Compound | inhibition in vivo at 3 mg/kg [1] [%] | inhibition in vivo at 10 mg/kg [1] [%] | inhibition in vivo at 30 mg/kg [1] [%] | inhibition in vivo at 0.3 mg/kg ([1]; 0.3 mg/kg) [%] | inhibition in vivo at 1 mg/kg [1] [%] | ED50 [2] [mg/kg] | Gastric ulceration: bleeding at the mucosal membrane ([3]; 10 mg/kg) | Gastric ulceration: damage beneath the mucosal membrane ([3]; 10 mg/kg) | Gastric ulceration: bleeding at the mucosal membrane ([3]; 30 mg/kg) | Gastric ulceration: damage beneath the mucosal membrane ([3]; 30 mg/kg) | LD50 at 168 h [4] [mg/kg] |
| --- | --- | --- | --- | --- | --- | --- | --- | --- | --- | --- | --- |
| CC(C)Cc1nccc2c(CC(=O)O)cccc12 [O, 1-isobutylisoquinoline-5-acetic acid] | 21.2 ± 7.8 | 30.3 ± 5.6 | 42.8 ± 8.8 | – | – | – | – | – | – | – | – |
| CCC(C)c1nccc2c(CC(=O)O)cccc12 (stereo not drawn) [P, 1-sec-butylisoquinoline-5-acetic acid] | 15.9 ± 10.4 | 39.6 ± 7 | – | – | – | – | – | – | – | – | – |
| O=C(O)Cc1cccc2c(-c3ccc(Br)cc3)nccc12 [B, 1-(4-bromophenyl)isoquinoline-5-acetic acid] | 48.2 ± 4.4 | – | – | 26.8 ± 5.3 | 33.7 ± 6.1 | 1 | 0/5 | 0/5 | 2/5 | 4/5 | 182 |
| CCOC(=O)Cc1cccc2c(-c3ccccc3)nccc12 [J, ethyl-1-phenylisoquinoline-5-acetate] | – | 23.2 ± 6.1 | 41.1 ± 4.8 | – | – | – | – | – | – | – | – |
| O=C(O)Cc1cccc2c(-c3ccccc3)nccc12 [H, 1-phenylisoquinoline-5-acetic acid] | 21.8 ± 4.5 | 31 ± 5.2 | 46.4 ± 7.7 | – | – | 4.1 | 1/15 | 1/15 | 4/20 | 2/20 | > 300 |
| O=C(O)Cc1cccc2c(-c3ccc(F)cc3)nccc12 [C, 1-(4-fluorophenyl)isoquinoline-5-acetic acid] | 28.3 ± 5.8 | 36.5 ± 4 | – | – | 25.6 ± 3.4 | 8.8 | – | – | – | – | > 300 |
| O=C(O)Cc1cccc2c(C3CCCC3)nccc12 [N, 1-cyclopentylisoquinoline-5-acetic acid] | 21.9 ± 8.1 | 24.8 ± 4.9 | – | – | – | – | – | – | – | – | – |
| CN(C)c1ccc(-c2nccc3c(CC(=O)O)cccc23)cc1 [D, 1-(4-dimethylaminophenyl)isoquinoline-5-acetic acid] | 34.2 ± 5.6 | 42.1 ± 5.3 | – | – | 16.3 ± 7.1 | 0.11 | 0/6 | 0/6 | 3/6 | 3/6 | > 300 |
| COc1ccc(-c2nccc3c(CC(=O)O)cccc23)cc1 [G, 1-(4-methoxyphenyl)isoquinoline-5-acetic acid] | 32.3 ± 6.3 | 41.2 ± 7.2 | – | – | 13.1 ± 9.1 | 9.2 | – | – | 0/5 | 0/5 | > 300 |
| O=C(O)Cc1cccc2c(-c3ccc(C(F)(F)F)cc3)nccc12 [I, 1-(4-trifluoromethylphenyl)isoquinoline-5-acetic acid] | 17 ± 4.5 | 24.5 ± 7.1 | 30.2 ± 5.3 | – | – | – | – | – | – | – | – |
| CC(C(=O)O)c1cccc2c(-c3ccc(Cl)cc3)nccc12 (stereo not drawn) [F, 2-[1-(4-chlorophenyl)isoquinolin-5-yl]propionic acid] | 33.1 ± 4.8 | 39.7 ± 5.1 | – | – | 27.3 ± 6.3 | 3.2 | 1/5 | 0/5 | 2/5 | 2/5 | – |
| NC(=O)Cc1cccc2c(-c3ccccc3)nccc12 [K, 1-phenylisoquinoline-5-acetamide] | – | 9 ± 6.4 | 39.7 ± 5.8 | – | – | – | – | – | – | – | – |
| CC(C)c1nccc2c(CC(=O)O)cccc12 [M, 1-isopropylisoquinoline-5-acetic acid] | 38.6 ± 3.2 | 62.9 ± 5.9 | – | – | 19.3 ± 2.6 | 3.5 | – | – | – | – | 250 |
